Marks after values point to notes of the source that are not given here.
What was measured:
[1] = tested on: ubiquinone (CoQ9) in liver and heart; assay: Ubiquinone increasing effect in liver and heart (Test Example 2); assay type: in vivo, rat; settings: male SD rats, mean ± standard error, N = 8
Method: (§1) Each of 6-week old male SD rats (eight rats per group) was forced oral administration of a vehicle or test compound 1 using a gastric sonde by the volume of 5 mL/kg so that the doses became 6, 20, 60 mg/kg, respectively, once a day for 14 days. On the morning after 14 times of administration, the animals were beheaded to slaughter. Liver and hearts were collected immediately, frozen in liquid nitrogen and stored at −80° C. On the following day, the livers and hearts were homogenized and oxidized with iron(III) chloride. After extraction with ethanol/hexane, the concentration of ubiquinone was determined by HPLC (Table 2).

[2] = tested on: myocardial infarction; assay: Effect on myocardial infarction (Test Example 5); assay type: in vivo, rat; settings: male Wistar rats, left coronary artery ligated 25 min, 2 hrs reperfusion, mean ± standard error, N = 7-10
Method: Each of 6-week old male Wistar rats (7-10 rats per group) was forced oral administration of vehicle, test compound 1 (2, 20 mg/kg), Atorvastatin (2, 20 mg/kg), Simvastatin (2, 20 mg/kg) using a gastric sonde by the volume of 1 mL/kg and once per day for 15 days. After 1 hr of the final administration, the anterior descending-branch of left coronary artery was ligated and reperfused after 25 min. After 2 hrs of reperfusion, Evance blue was intravenously injected from the right cervical vein so that the non-ischemic area was stained and can be distinguished from the ischemic area, and the rats were slaughtered. The ischemic area was carved out, and the living area was stained using p-nitroblue tetrazolium and distinguished from the necrotic area (portion of myocardial infarction). The area of myocardial infarction was calculated by the weight ratio relative to the ischemic area (Table 5).

[3] = tested on: ubiquinone (CoQ9, CoQ10) in brain; assay: Ubiquinone increasing effect in brain (Test Example 3); assay type: in vivo, rat; settings: male SD rats, 14 administrations, arteria cerebri media occluded 2 h, 8 hrs reperfusion, right cerebral cortices and striata, mean ± standard error, N = 8
Method: Each of 6-week old male SD rats (eight rats per group) was forced oral administration of a vehicle or test compound 1 using a gastric sonde by the volume of 5 mL/kg so that the doses became 2, 20 mg/kg, respectively. The day after 14 times of administration, a silicone plug was inserted from the carotid artery under halothane anesthetic to occlude proximal portion of the arteria cerebri media. After two hours, the plug was removed under light anesthetic, and reperfusion was carried out. After 8 hrs of reperfusion, the rats were beheaded to slaughter. The right cerebral cortices and striata were collected, frozen on dry ice and preserved at −80° C. On the following day, the right cerebral cortices and striata were homogenized and oxidized with iron(III) chloride. After extraction with ethanol/hexane, the concentration of ubiquinone was determined by HPLC (Table 3).

[4] = tested on: cerebral infarction; assay: Cerebral infarction suppressing effect (Test Example 4); assay type: in vivo, rat; settings: male SD rats, 14 administrations, arteria cerebri media occluded 2 h, 48 hrs reperfusion, TTC staining, mean ± standard error, N = 19-22
Method: Each of 6-week old male SD rats (19 to 22 rats per group) was forced oral administration of a vehicle or test compound 1 using a gastric sonde by the volume of 5 mL/kg so that the doses became 2, 20 mg/kg, respectively, using a gastric sonde. The day after 14 times of administration, a silicone plug was inserted from the carotid artery under halothane anesthetic to occlude proximal portion of the arteria cerebri media. After two hours, the plug was removed under light anesthetic, and reperfusion was carried out. After 48 hrs of reperfusion, the rats were beheaded to slaughter. Six pieces of sliced brain from the forehead (thickness: 2 mm) were carved out and subjected to TTC staining (1% TTC, 37° C., 15 min). The TTC-stained image was photographed by a digital camera, and the area of cerebral infarction was measured by an image analyzer. (Table 4)

[5] = tested on: ubiquinone (CoQ9) in heart; assay: Ubiquinone increasing effect in heart (Test Example 1); assay type: in vivo, rat; settings: male SD rats, mean ± standard error, N = 8
Method: as §1, with “Hearts” for “Liver and hearts”, “the” for “the livers and”, “1).” for “2).”

[6] = 6 mg/kg oral once a day for 14 days
[7] = 20 mg/kg oral once a day for 14 days
[8] = 60 mg/kg oral once a day for 14 days
[9] = 2 mg/kg oral once per day for 15 days
[10] = 20 mg/kg oral once per day for 15 days

With `COc1cccc([C@H]2O[C@H](CC(=O)Nc3cccc(CCC(=O)O)c3)C(=O)N(CC(C)(C)CO)c3ccc(Cl)cc32)c1OC` [Compound 2, 3-[3-[[(3R,5S)-7-chloro-5-(2,3-dimethoxyphenyl)-1-(3-hydroxy-2,2-dimethylpropyl)-2-oxo-1,2,3,5-tetrahydro-4,1-benzoxazepin-3-yl]acetyl]aminophenyl]propionic acid] the “Amount of CoQ9 in heart” value [1, 6] was 202.7 ± 2.7 μg/g heart, the “Amount of CoQ9 in liver” value [1, 6] was 105.2 ± 3.5 μg/g liver and the “Amount of CoQ9 in heart” value [1, 7] was 208.3 ± 4.6 μg/g heart. The “Amount of CoQ9 in liver” value [1, 7] was 117.6 ± 4.6 μg/g liver, the “Amount of CoQ9 in heart” value [1, 8] was 204.7 ± 4.0 μg/g heart and the “Amount of CoQ9 in liver” value [1, 8] was 125.4 ± 3.4 μg/g liver. The melting point was 141 to 144 °C.
In the case of `CC(C)c1c(C(=O)Nc2ccccc2)c(-c2ccccc2)c(-c2ccc(F)cc2)n1CC[C@@H](O)C[C@@H](O)CC(=O)O` [Atorvastatin], the “Area of myocardial infarction” value [2, 9] is reported as 51 ± 4 % ischemic area and the “Area of myocardial infarction” value [2, 10] is reported as 47 ± 6 % ischemic area.
For `COc1cccc([C@H]2O[C@H](CC(=O)N3CCC(CC(=O)O)CC3)C(=O)N(CC(C)(C)COC(C)=O)c3ccc(Cl)cc32)c1OC` [Compound 1, N-[[(3R,5S)-1-(3-acetoxy-2,2-dimethylpropyl)-7-chloro-5-(2,3-dimethoxyphenyl)-2-oxo-1,2,3,5-tetrahydro-4,1-benzoxazepin-3-yl]acetyl]piperidine-4-acetic acid], the “Amount of CoQ9 in brain” value ([3]; 2 mg/kg oral) was 22.0 ± 0.4 μg/g brain, the “Amount of CoQ10 in brain” value ([3]; 2 mg/kg oral) was 13.0 ± 0.3 μg/g brain and the “Amount of CoQ9 in brain” value ([3]; 20 mg/kg oral) was 24.9 ± 0.5 μg/g brain. For the same compound, the “Amount of CoQ10 in brain” value ([3]; 20 mg/kg oral) was 14.7 ± 0.3 μg/g brain, the “Volume of cerebral infarction” value ([4]; 2 mg/kg oral) was 289 ± 27 mm^3 and the “Volume of cerebral infarction” value ([4]; 20 mg/kg oral) was 220 ± 35* mm^3. The “Amount of CoQ9 in heart” value [5, 6] was 214.4 ± 6.6 μg/g heart, the “Amount of CoQ9 in heart” value [5, 7] was 215.3 ± 5.7 μg/g heart and the “Amount of CoQ9 in heart” value [5, 8] was 225.0 ± 4.6 μg/g heart. The “Area of myocardial infarction” value [2, 9] was 61 ± 4 % ischemic area and the “Area of myocardial infarction” value [2, 10] was 43 ± 2 % ischemic area.
For `CCC(C)(C)C(=O)O[C@H]1C[C@@H](C)C=C2C=C[C@H](C)[C@H](CC[C@@H]3C[C@@H](O)CC(=O)O3)[C@H]21` [Simvastatin], the “Area of myocardial infarction” value [2, 9] was 51 ± 3 % ischemic area and the “Area of myocardial infarction” value [2, 10] was 51 ± 2 % ischemic area.
